Reference: publication PMC9090415, “Discovery of small molecule inhibitors of Plasmodium falciparum apicoplast DNA polymerase” (Journal of Enzyme Inhibition and Medicinal Chemistry, 2022)

Target: T1, bacteriophage T4 DNA polymerase (Enterobacteria phage T4, UniProt P04415)
T1 construct: made in house
T1 sequence (P04415 1-898): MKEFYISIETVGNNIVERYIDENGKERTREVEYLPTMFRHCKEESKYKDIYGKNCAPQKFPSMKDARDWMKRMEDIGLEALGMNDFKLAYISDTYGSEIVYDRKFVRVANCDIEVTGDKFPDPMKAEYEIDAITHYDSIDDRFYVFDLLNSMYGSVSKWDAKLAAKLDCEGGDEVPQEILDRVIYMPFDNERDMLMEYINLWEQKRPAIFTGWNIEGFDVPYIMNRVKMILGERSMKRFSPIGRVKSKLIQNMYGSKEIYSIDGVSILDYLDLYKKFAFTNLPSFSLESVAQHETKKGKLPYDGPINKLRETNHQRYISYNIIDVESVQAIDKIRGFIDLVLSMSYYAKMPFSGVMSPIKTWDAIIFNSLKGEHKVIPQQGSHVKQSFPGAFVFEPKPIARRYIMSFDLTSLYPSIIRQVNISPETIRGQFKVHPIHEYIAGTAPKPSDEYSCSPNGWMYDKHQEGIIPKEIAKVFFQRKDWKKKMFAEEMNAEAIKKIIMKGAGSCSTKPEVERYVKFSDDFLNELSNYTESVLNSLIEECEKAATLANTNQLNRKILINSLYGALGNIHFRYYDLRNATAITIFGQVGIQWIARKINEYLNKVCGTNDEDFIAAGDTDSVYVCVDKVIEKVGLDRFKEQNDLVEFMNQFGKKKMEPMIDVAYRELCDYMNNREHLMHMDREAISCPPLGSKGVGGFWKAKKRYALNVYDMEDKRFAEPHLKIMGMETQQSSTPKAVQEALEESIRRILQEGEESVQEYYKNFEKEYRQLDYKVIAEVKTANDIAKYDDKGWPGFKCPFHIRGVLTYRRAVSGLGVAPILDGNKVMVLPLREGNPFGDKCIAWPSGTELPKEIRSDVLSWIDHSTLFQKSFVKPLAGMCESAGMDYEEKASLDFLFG
Experiment: Counter-screen against bacteriophage T4 DNA polymerase
Format: biochemical
Settings: for % inhibition T4 10' 2.5 / % inhibition T4 10' 5 / % inhibition T4 10' 10 / % inhibition T4 10' 20 / % inhibition T4 10' 40 / % inhibition T4 10' 80: read at 10'
Experimental: Codon-optimized, exonuclease-deficient Pf-apPOL was overexpressed in E. coli BL21 (DE3) and purified as described. The protein was dialysed against two, 1-liter changes of 20 mM Tris-HCl (pH 8.0), 400 mM NaCl, and 20% glycerol. Plasmodium bergei and Babesia bovis apPOLs (Pb-apPOL and Bb-apPOL, respectively) were codon-optimized, expressed, and purified as for Pf-apPOL[15]. Bacteriophage T4 DNA polymerase was purified as described. The DNA oligonucleotides used to make the high-throughput substrate were obtained from Integrated DNA Technologies. Deoxynucleotides were purchased from Strategene. All other materials came from Fisher Scientific.
Each compound was tested in a dose-response format to determine IC50 values. […] T4 DNA polymerase can be produced in large quantities, and is in the same family (B-family) as the replicative human DNA polymerases (α, δ, and ε)[20].

Question: How did the “% inhibition T4 10'” value (DRC-2, concentration 2.5) turn out when `N#CC(=NNc1cc(C(F)(F)F)cc(C(F)(F)F)c1)C(=O)c1ccco1` [KU0264276] was run?
Answer: The value was 9%.

Question: And the “% inhibition T4 10'” value (DRC-2, concentration 5)?
Answer: The value was 9%.

Question: What about the “% inhibition T4 10'” value (DRC-2, concentration 20) of the same compound?
Answer: Its value is 13%.

Question: What about the “% inhibition T4 10'” value (DRC-2, concentration 40) of the same compound?
Answer: Its value is 19%.

Question: And the “% inhibition T4 40'” value (DRC-2, concentration 2.5)?
Answer: The value was 7%.

Question: And the “% inhibition T4 40'” value (DRC-2, concentration 5)?
Answer: Its value is 9%.

Question: What about the “% inhibition T4 40'” value (DRC-2, concentration 10) of the same compound?
Answer: Its value is 13%.

Question: What about the “% inhibition T4 40'” value (DRC-2, concentration 20) of the same compound?
Answer: Its value is 13%.

Question: What about the “% inhibition T4 40'” value (DRC-2, concentration 40) of the same compound?
Answer: Its value is 19%.

Question: And the “% inhibition T4 40'” value (DRC-2, concentration 80)?
Answer: The value was 19%.

Question: And the “% inhibition T4 90'” value (DRC-2, concentration 5)?
Answer: The value was 7%.

Question: And the “% inhibition T4 180'” value (DRC-2, concentration 40)?
Answer: Its value is 13%.

Question: What about the “% inhibition T4 180'” value (DRC-2, concentration 80) of the same compound?
Answer: The value was 19%.

Question: With `N#Cc1c(O)nc(N2CCCCC2)nc1-c1ccc2c(c1)OCO2` [KU0083146] as the compound, how does the “% inhibition T4 10' 2.5” value (DRC-1, concentration 2.5) read?
Answer: Its value is -1.681%.

Question: What about the “% inhibition T4 10' 5” value (DRC-1, concentration 5) of the same compound?
Answer: The value was -6.153%.

Question: And the “% inhibition T4 10' 10” value (DRC-1, concentration 10)?
Answer: The value was -0.208%.

Question: What about the “% inhibition T4 10' 20” value (DRC-1, concentration 20) of the same compound?
Answer: The value was -4.89%.

Question: And the “% inhibition T4 10' 40” value (DRC-1, concentration 40)?
Answer: The value was 2.23%.

Question: What about the “% inhibition T4 10' 80” value (DRC-1, concentration 80) of the same compound?
Answer: Its value is 27.8578%.

Question: What about the “% inhibition T4 70' 2.5” value (DRC-1, read at 70', concentration 2.5) of the same compound?
Answer: The value was -2.1541%.

Question: What about the “% inhibition T4 70' 5” value (DRC-1, read at 70', concentration 5) of the same compound?
Answer: Its value is -7.277%.

Question: And the “% inhibition T4 70' 10” value (DRC-1, read at 70', concentration 10)?
Answer: Its value is -0.8576%.

Question: What about the “% inhibition T4 70' 20” value (DRC-1, read at 70', concentration 20) of the same compound?
Answer: Its value is -6.699%.

Question: What about the “% inhibition T4 70' 40” value (DRC-1, read at 70', concentration 40) of the same compound?
Answer: The value was -0.3941%.

Question: What about the “% inhibition T4 70' 80” value (DRC-1, read at 70', concentration 80) of the same compound?
Answer: Its value is 25.8853%.

Question: What about the “% inhibition T4 130' 2.5” value (DRC-1, read at 130', concentration 2.5) of the same compound?
Answer: The value was -4.596%.

Question: And the “% inhibition T4 130' 5” value (DRC-1, read at 130', concentration 5)?
Answer: Its value is -9.967%.

Question: And the “% inhibition T4 130' 10” value (DRC-1, read at 130', concentration 10)?
Answer: The value was -3.465%.

Question: And the “% inhibition T4 130' 20” value (DRC-1, read at 130', concentration 20)?
Answer: The value was -8.629%.

Question: And the “% inhibition T4 130' 40” value (DRC-1, read at 130', concentration 40)?
Answer: Its value is -2.723%.

Question: What about the “% inhibition T4 130' 80” value (DRC-1, read at 130', concentration 80) of the same compound?
Answer: Its value is 26.2784%.

Question: What about the “% inhibition T4 10' 2.5” value (DRC-2, concentration 2.5) of the same compound?
Answer: The value was 12%.

Question: And the “% inhibition T4 10' 5” value (DRC-2, concentration 5)?
Answer: Its value is 9%.

Question: And the “% inhibition T4 10' 10” value (DRC-2, concentration 10)?
Answer: The value was -0.482%.

Question: What about the “% inhibition T4 10' 20” value (DRC-2, concentration 20) of the same compound?
Answer: The value was -17%.

Question: What about the “% inhibition T4 10' 40” value (DRC-2, concentration 40) of the same compound?
Answer: The value was -12%.

Question: And the “% inhibition T4 10' 80” value (DRC-2, concentration 80)?
Answer: Its value is -1.89%.

Question: And the “% inhibition T4 40' 2.5” value (DRC-2, read at 40', concentration 2.5)?
Answer: Its value is 13%.

Question: And the “% inhibition T4 40' 5” value (DRC-2, read at 40', concentration 5)?
Answer: Its value is 10%.

Question: What about the “% inhibition T4 40' 10” value (DRC-2, read at 40', concentration 10) of the same compound?
Answer: Its value is 2%.

Question: And the “% inhibition T4 40' 20” value (DRC-2, read at 40', concentration 20)?
Answer: The value was -13%.

Question: What about the “% inhibition T4 40' 40” value (DRC-2, read at 40', concentration 40) of the same compound?
Answer: The value was -9%.

Question: What about the “% inhibition T4 40' 80” value (DRC-2, read at 40', concentration 80) of the same compound?
Answer: Its value is 3.39%.

Question: And the “% inhibition T4 90' 2.5” value (DRC-2, read at 90', concentration 2.5)?
Answer: Its value is 13%.

Question: And the “% inhibition T4 90' 5” value (DRC-2, read at 90', concentration 5)?
Answer: Its value is 12%.

Question: And the “% inhibition T4 90' 10” value (DRC-2, read at 90', concentration 10)?
Answer: The value was 2.84%.

Question: What about the “% inhibition T4 90' 20” value (DRC-2, read at 90', concentration 20) of the same compound?
Answer: Its value is -10%.

Question: What about the “% inhibition T4 90' 40” value (DRC-2, read at 90', concentration 40) of the same compound?
Answer: Its value is -5.54%.

Question: And the “% inhibition T4 90' 80” value (DRC-2, read at 90', concentration 80)?
Answer: The value was 3.63%.

Question: What about the “% inhibition T4 180' 2.5” value (DRC-2, read at 180', concentration 2.5) of the same compound?
Answer: The value was 12%.

Question: What about the “% inhibition T4 180' 5” value (DRC-2, read at 180', concentration 5) of the same compound?
Answer: The value was 11%.

Question: And the “% inhibition T4 180' 10” value (DRC-2, read at 180', concentration 10)?
Answer: The value was 4%.

Question: What about the “% inhibition T4 180' 20” value (DRC-2, read at 180', concentration 20) of the same compound?
Answer: The value was -10%.

Question: And the “% inhibition T4 180' 40” value (DRC-2, read at 180', concentration 40)?
Answer: Its value is -6.49%.

Question: And the “% inhibition T4 180' 80” value (DRC-2, read at 180', concentration 80)?
Answer: Its value is 2.15%.

Question: `Cc1nc(/N=N/c2ccc(C(=O)[O-])cc2)c(COP(=O)([O-])[O-])c(C=O)c1O.[Na+].[Na+].[Na+]` [KU0261395] was tested. Which “% inhibition T4 10'” value (DRC-2, concentration 2.5) did it give?
Answer: The value was -16%.

Question: What about the “% inhibition T4 10'” value (DRC-2, concentration 5) of the same compound?
Answer: The value was -9%.

Question: What about the “% inhibition T4 10'” value (DRC-2, concentration 40) of the same compound?
Answer: The value was -10%.

Question: What about the “% inhibition T4 10'” value (DRC-2, concentration 80) of the same compound?
Answer: The value was -18%.

Question: And the “% inhibition T4 40'” value (DRC-2, concentration 2.5)?
Answer: Its value is -20%.

Question: What about the “% inhibition T4 40'” value (DRC-2, concentration 5) of the same compound?
Answer: The value was -16%.

Question: And the “% inhibition T4 40'” value (DRC-2, concentration 80)?
Answer: The value was -18%.

Question: And the “% inhibition T4 90'” value (DRC-2, concentration 2.5)?
Answer: The value was -20%.

Question: And the “% inhibition T4 90'” value (DRC-2, concentration 5)?
Answer: The value was -18%.

Question: And the “% inhibition T4 90'” value (DRC-2, concentration 10)?
Answer: The value was -9%.

Question: What about the “% inhibition T4 90'” value (DRC-2, concentration 40) of the same compound?
Answer: Its value is -11%.

Question: And the “% inhibition T4 180'” value (DRC-2, concentration 20)?
Answer: Its value is -9%.

Question: What about the “% inhibition T4 180'” value (DRC-2, concentration 40) of the same compound?
Answer: Its value is -11%.

Question: And the “% inhibition T4 180'” value (DRC-2, concentration 80)?
Answer: The value was -10%.

Question: Which results are given for `Cc1ccccc1C(=O)N1CCc2c(nc3cc(-c4ccccc4)[nH]n3c2=O)C1` [Molecule 41, Cc1ccccc1C(=O)N1CCc2c(C1)nc1n(c2=O)[nH]c(c1)c1ccccc1]?
Answer: % inhibition T4 10' (DRC-2, concentration 2.5): 10%; % inhibition T4 10' (DRC-2, concentration 5): 13%; % inhibition T4 10' (DRC-2, concentration 10): 5%; % inhibition T4 10' (DRC-2, concentration 20): -10%; % inhibition T4 10' (DRC-2, concentration 40): -26%; % inhibition T4 10' (DRC-2, concentration 80): -46%; % inhibition T4 40' (DRC-2, concentration 2.5): 10%; % inhibition T4 40' (DRC-2, concentration 5): 13%; % inhibition T4 40' (DRC-2, concentration 10): 5%; % inhibition T4 40' (DRC-2, concentration 20): -10%; % inhibition T4 40' (DRC-2, concentration 40): -26%; % inhibition T4 40' (DRC-2, concentration 80): -46%

Question: What does the source list for `O=C1CCCC2=C1C(c1ccccn1)C1=C(CCCC1=O)O2` [KU0194228]?
Answer: % inhibition T4 10' (DRC-2, concentration 10): 18%; % inhibition T4 40' (DRC-2, concentration 20): 18%
